# Source: ChEMBL document CHEMBL2424513, “Design, synthesis and biological studies of survivin dimerization modulators that prolong mitotic cycle” (Bioorg Med Chem Lett, 2013)
# Activity calls are given as the source filed them. No cut-off for these calls is given here.
# Assays:
# [1] = biological target: Baculoviral IAP repeat-containing protein 5 (Homo sapiens) (UniProt O15392); test: Modulation of GFP-tagged survivin dimerization in human PC3 cells assessed as distorted, diffused or decondensed CPC organization at 50 to 100 nM after 72 hrs by real-time video microscopy relative to control; assay type: cell-based; settings: PC-3
# Baculoviral IAP repeat-containing protein 5 (Homo sapiens), sequence (O15392 whole entry, the tested form may be a part): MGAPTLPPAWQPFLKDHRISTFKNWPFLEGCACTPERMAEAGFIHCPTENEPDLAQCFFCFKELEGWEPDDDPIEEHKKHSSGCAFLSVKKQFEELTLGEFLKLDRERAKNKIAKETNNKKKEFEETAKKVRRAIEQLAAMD
# [2] = biological target: Baculoviral IAP repeat-containing protein 5 (Homo sapiens) (UniProt O15392); test: Modulation of GFP-tagged survivin dimerization in HUVEC assessed as distorted, diffused or decondensed CPC organization at 50 to 100 nM after 48 hrs by real-time video microscopy relative to control
# [3] = biological target: Baculoviral IAP repeat-containing protein 5 (Homo sapiens) (UniProt O15392); test: Modulation of GFP-tagged survivin dimerization in HUVEC assessed as defect in mitotic progression at 50 to 100 nM after 48 hrs by real-time video microscopy relative to control
# [4] = biological target: Baculoviral IAP repeat-containing protein 5 (Homo sapiens) (UniProt O15392); test: Modulation of GFP-tagged survivin dimerization in HUVEC assessed as reduction in cell number at 50 to 100 nM after 48 hrs by real-time video microscopy relative to control
# [5] = biological target: Baculoviral IAP repeat-containing protein 5 (Homo sapiens) (UniProt O15392); test: Modulation of GFP-tagged survivin dimerization in human PC3 cells assessed as defect in mitotic progression at 50 to 100 nM after 72 hrs by real-time video microscopy; assay type: cell-based; settings: PC-3
# [6] = biological target: Baculoviral IAP repeat-containing protein 5 (Homo sapiens) (UniProt O15392); test: Modulation of GFP-tagged survivin dimerization in HUVEC assessed as reduction in cell number at 50 to 100 nM by real-time video microscopy; settings: TDE = time-dependent effect
# [7] = biological target: Baculoviral IAP repeat-containing protein 5 (Homo sapiens) (UniProt O15392); test: Modulation of GFP-tagged survivin dimerization in HUVEC assessed as reduction in cell number after 48 hrs by real-time video microscopy
# [8] = biological target: Baculoviral IAP repeat-containing protein 5 (Homo sapiens) (UniProt O15392); test: Modulation of GFP-tagged survivin dimerization in HUVEC assessed as defect in mitotic progression at 10 nM after 48 hrs by real-time video microscopy
# [9] = biological target: Baculoviral IAP repeat-containing protein 5 (Homo sapiens) (UniProt O15392); test: Modulation of GFP-tagged survivin dimerization in human PC3 cells assessed as defect in mitotic progression at 10 nM after 72 hrs by real-time video microscopy; assay type: cell-based; settings: PC-3
# [10] = biological target: Baculoviral IAP repeat-containing protein 5 (Homo sapiens) (UniProt O15392); test: Modulation of GFP-tagged survivin dimerization in human PC3 cells assessed as distorted, diffused or decondensed CPC organization at 10 nM after 72 hrs by real-time video microscopy relative to control; assay type: cell-based; settings: PC-3
# [11] = biological target: Baculoviral IAP repeat-containing protein 5 (Homo sapiens) (UniProt O15392); test: Modulation of GFP-tagged survivin dimerization in HUVEC assessed as distorted, diffused or decondensed CPC organization at 10 nM after 48 hrs by real-time video microscopy relative to control
# [12] = biological target: Baculoviral IAP repeat-containing protein 5 (Homo sapiens) (UniProt O15392); test: Modulation of GFP-tagged survivin dimerization in human PC3 cells assessed as reduction in cell number at 50 to 100 nM after 72 hrs by real-time video microscopy relative to control; assay type: cell-based; settings: PC-3
# [13] = biological target: Baculoviral IAP repeat-containing protein 5 (Homo sapiens) (UniProt O15392); test: Modulation of GFP-tagged survivin dimerization in HUVEC assessed as time length of mitosis at 100 nM after 48 hrs by real-time video microscopy (reference value: 51.2 +/- 2.3 mins)
SMILES,Activity [1],Activity [2],Activity [3],Activity [4],Activity [5],Activity [6],Activity [7],Activity [8],Activity [9],Activity [10],Activity [11],Activity [12],fold change (FC) [3],fold change (FC) [5],TIME [13]
N#Cc1c(-c2cccc(OCc3ccccc3)c2)cc(-c2cc(Cl)cc(I)c2O)[nH]c1=O,Active,Active,Active,50%,Active,tde,Dose-dependent effect,inactive,inactive,inactive,inactive,50%,–,–,–
N#Cc1c(-c2cc(OCc3ccccc3)cc(OCc3ccccc3)c2)cc(-c2cc(Cl)ccc2O)[nH]c1=O,Active,Active,inactive,–,inactive,tde,Dose-dependent effect,inactive,inactive,inactive,inactive,–,2,2,2.57 h
N#Cc1c(-c2ccccc2)cc(-c2cc(Cl)ccc2O)[nH]c1=O,–,–,inactive,–,inactive,–,–,–,–,–,–,–,–,–,1.04 h
